# Patent US7052871B2, “Methods of improving transformation efficiency of plants with auxin responsive promoter sequences” (Pioneer Hi-Bred International, Inc., priority 2000, dated 2006)
# Assays:
# [1] = tested on: ZmAxig1 mRNA in BMS (Black Mexican Sweet) maize cells; test: Northern blot of mRNA from BMS cells cultured on auxin-containing medium, probed with SEQ ID No. 12; assay type: cell-based, Zea mays; conditions: BMS cultured cells (FIG. 4)
# ZmAxig1 mRNA = test: Northern blot of mRNA from treated plants probed with SEQ ID No. 12 (CJLP181); assay type: in vivo, Zea mays; conditions: for hybridization of SEQ ID No. 12 probe with mRNA from anther or entire aerial portion of treated plants: anther or entire aerial portion of treated plants (FIG. 4)
# [2] = tested on: male fertility of pZmAxig1:Ms45 plants; test: Fertility restoration in ms45 male sterile maize plants transformed with V2 (pZmAxig1:Ms45); assay type: in vivo, Zea mays
# From the text: A second DNA plasmid was constructed by combining the ZmAxig1 promoter (1306 bases 5′ of start codon; SEQ ID NO: 16) with the Ms45 coding sequence and 35S:PAT in a T-DNA vector. This plasmid was cointegrated with Japan Tobacco plasmid pSB1 to create a second suitable vector, V2.
# Maize GS3Ms45EX4 embryos, segregating for homozygous ms45 (male sterile) and Ms45/ms45 (male fertile) genotypes, were transformed with the first and second vectors using Agrobacterium.
# Transformed cell lines homozygous for the ms45 male sterile genotype were screened by quantitative PCR screening and advanced for regeneration into plants. Positive lines were transferred to 289B medium, an MS-based medium containing bialaphos and carbenicillin, with lower sucrose and hormone levels, to initiate plant regeneration. Following somatic embryo maturation (2–3 weeks), well-developed somatic embryos were transferred to medium for germination and transferred to the lighted culture room. Approximately 7 days later, developing plantlets were transferred to medium in tubes for 7 days until plantlets were well established. Plants were then transferred to inserts in flats (equivalent to 2.5″ pot) containing potting soil and grown for one week in a growth chamber, subsequently grown an additional 1–2 weeks in the greenhouse, then transferred to classic 600 pots (1.6 gallon) and grown to maturity.
# From each of 20 independent callus lines transformed with V2, six regenerated plants were grown in the greenhouse. […] The plants were scored for fertility after tassels emerged.
# [3] = tested on: cDNA fragments (w0h051.7, ZmAxig1); conditions: anthers; two daily soil drenches of 12 μl dicamba formulation in 450 ml water
# From the text: Anthers containing microsporocytes at meiosis […] through early uninucleate stages of development were harvested on the third day and frozen. Anthers containing microsporocytes at prophase through early uninucleate stages of development were harvested from non-treated plants. Frozen tissues were ground and total RNA extracted with Tripure™ isolation reagent (Boehringer Mannheim, Indianapolis, Ind.) according to the manufacturer's instructions.
# RNA isolated from anthers of three dicamba-treated plants and three non-treated plants was sent to laboratories of CuraGen Corporation (New Haven, Conn.) for quantitative expression profiling. […] (FIG. 3)
# [4] = tested on: ZmAxig1 expression in anthers
# Protocol: Progeny of transgenic maize plants, hemizygous for the maize anther-preferred promoter 5126 (U.S. Pat. Nos. 5,689,049 and 5,689,051) driving DAM methylase linked with 35S:PAT (p5126:DAM/35S:PAT), were grown in the greenhouse. Expression of p5126:DAM is known to ablate the tapetum prior to the quartet stage of microspore development, which results in male sterile plants.
# Plants segregating for male fertile/glufosinate-ammonium susceptible phenotype (wild-type) or for male sterile/glufosinate-ammonium resistant phenotype (p5126:DAM/35S:PAT), were treated with a dicamba soil drench as described above, or were not treated. Quartet/early-uninucleate stage anthers were harvested from these plants and mRNA was isolated with the QuickPrep® Micro mRNA purification kit (Amersham Pharmacia, Piscataway, N.J.) according to the manufacturer's instructions.
# (§1) Quartet/early-uninucleate stage anthers from dicamba-treated or non-treated plants were harvested and embedded for in situ hybridization or frozen for mRNA isolation as described above.
# [5] = tested on: ZmAxig1 transcripts in the tapetum; conditions: treated plants (FIG. 7)
# From the text: as §1
compound,measurement,setting,value
"O=C(O)COc1ccc(Cl)cc1Cl [2,4-D, 2,4-dichlorophenoxyacetic acid]",hybridization of SEQ ID No. 12 probe with mRNA from BMS maize cultured on medium containing the auxin,[1],hybridized
COCC(=O)N(c1c(C)cccc1C)C(C)C(=O)OC (stereo not shown) [Metalaxyl],hybridization of SEQ ID No. 12 probe with mRNA from anther or entire aerial portion of treated plants,ZmAxig1 mRNA,did not hybridize
O=C(O)c1nc(Cl)ccc1Cl [clopyralid],"plants showing partial to complete male fertile phenotypes, foliar application","[2]; 10 μl clopyralid formulation, foliar application with 1 ml water, homozygous ms45 V2 progeny",Two of five
same,"plants showing partial to complete male fertile phenotypes, soil drench application","[2]; 10 μl clopyralid formulation, soil drench with 200 ml water, homozygous ms45 V2 progeny",three of six
C=CCN(CC=C)C(=O)C(Cl)Cl [Dichlormid],hybridization of SEQ ID No. 12 probe with mRNA from anther or entire aerial portion of treated plants,ZmAxig1 mRNA,did not hybridize
NC(=O)NS(=O)(=O)c1ccccc1Cl [CBSU],hybridization of SEQ ID No. 12 probe with mRNA from anther or entire aerial portion of treated plants,ZmAxig1 mRNA,did not hybridize
COc1c(Cl)ccc(Cl)c1C(=O)O [dicamba],expression level of induced cDNA fragments relative to the control,[3],greater than 2.5 fold
same,hybridization of SEQ ID No. 12 probe with mRNA from anthers of treated plants,"ZmAxig1 mRNA; anthers, northern blot (FIG. 3)",hybridized very strongly
same,hybridization of SEQ ID No. 12 probe with mRNA from tassel or whorl leaf of treated plants,"ZmAxig1 mRNA; tassel or whorl leaf, northern blot (FIG. 3)",to a lesser degree
same,ZmAxig1 expression in anthers of treated plants (Northern blot),[4]; quartet/early-uninucleate stage anthers,induced
same,induction of ZmAxig1 expression in anthers from wild-type male fertile plants,"[4]; soil drench, quartet/early-uninucleate stage anthers (FIG. 6)",induced expression of ZmAxig1
same,induction of ZmAxig1 expression in anthers from male sterile p5126:DAM/35S:PAT plants,"[4]; soil drench, tapetum-ablated male sterile plants (FIG. 6)",not in anthers from male sterile plants
same,in situ hybridization of ZmAxig1 antisense RNA probe to RNA in tapetum of anthers and microspores,[5],strong in situ hybridization
same,plants with fertile phenotype,[2]; of 81 treated V2 plants,33 plants
same,plants with shedder (partially fertile) phenotype,[2]; of 81 treated V2 plants,36 plants
same,plants that produced anthers with pollen,"[2]; of 81 treated V2 plants, daily soil drench 3 μl dicamba formulation, one to three days",69 plants
same,viability of pollen from treated plants,"[2]; pollen from 9 treated plants used to pollinate non-transformed ears, kernels germinated",viable
CC1=C(C(=O)Nc2ccccc2)SCCO1 [Carboxin],hybridization of SEQ ID No. 12 probe with mRNA from anther or entire aerial portion of treated plants,ZmAxig1 mRNA,did not hybridize
CN(C)C(=O)Nc1ccc(Cl)c(Cl)c1 [Diuron],hybridization of SEQ ID No. 12 probe with mRNA from anther or entire aerial portion of treated plants,ZmAxig1 mRNA,did not hybridize
